# Test results taken from US12655116B2, “Substituted isophthalic acid diamides” (Bayer Aktiengesellschaft, priority 2020, dated 2026).
# Tests used:
# ALOMY [1] = assay: Post-emergence herbicidal action against ALOMY; assay type: in vivo, Alopecurus myosuroides; settings: dosage 20 g/ha, visual assessment about 3 weeks after treatment vs untreated controls
# Procedure, shortened: (§1)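 Greenhouse pot plants in sandy loam were sprayed at the one-leaf stage, 2 to 3 weeks after sowing, with WP or EC formulations as aqueous suspension or emulsion (600 to 800 l/ha water, 0.2% wetting agent). About 3 weeks later, damage was scored visually against untreated controls as % action (100% = dead, 0% = like control).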
# ABUTH [2] = assay: Pre-emergence herbicidal action against ABUTH; assay type: in vivo, Abutilon theophrasti
# Procedure, shortened: (§2)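 Visual rating at 3 weeks vs untreated pots; 0–100% scale, 100% = plants died. Treatment: aqueous WP/EC spray onto covering soil, 600–800 l/ha, 0.2% wetter, seeds in sandy loam.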
# ALOMY [3] = assay: Pre-emergence herbicidal action against ALOMY; assay type: in vivo, Alopecurus myosuroides; settings: pre-emergence
# Procedure, shortened: as §2
# AMARE [4] = assay: Post-emergence herbicidal action against AMARE; assay type: in vivo, Amaranthus retroflexus; settings: 20 g/ha, visual assessment about 3 weeks after treatment, 100% = plants have died, 0% = like control plants
# Procedure, shortened: as §1
# DIGSA [5] = assay: Pre-emergence herbicidal action against DIGSA; assay type: in vivo, Digitaria sanguinalis
# Procedure, shortened: as §2
# SETVI [6] = assay: Pre-emergence herbicidal action against SETVI; assay type: in vivo, Setaria viridis
# Procedure, shortened: as §2
# ECHCG [7] = assay: Pre-emergence herbicidal action against ECHCG; assay type: in vivo, Echinochloa crus-galli; settings: 80 g/ha
# Procedure, shortened: as §2
# ECHCG [8] = assay: Post-emergence herbicidal action against ECHCG; assay type: in vivo, Echinochloa crus-galli
# Procedure, shortened: as §1
# DIGSA [9] = assay: Post-emergence herbicidal action against DIGSA; assay type: in vivo, Digitaria sanguinalis
# Procedure, shortened: as §1
# AMARE [10] = assay: Pre-emergence herbicidal action against AMARE; assay type: in vivo, Amaranthus retroflexus
# Procedure, shortened: as §2
# MATIN [11] = assay: Pre-emergence herbicidal action against MATIN; assay type: in vivo, Matricaria inodora
# Procedure, shortened: as §2
# PHBPU [12] = assay: Pre-emergence herbicidal action against PHBPU; assay type: in vivo, Pharbitis purpurea; settings: dosage 80 g/ha
# Procedure, shortened: as §2
# VERPE [13] = assay: Pre-emergence herbicidal action against VERPE; assay type: in vivo, Veronica persica
# Procedure, shortened: as §2
# VIOTR [14] = assay: Pre-emergence herbicidal action against VIOTR; assay type: in vivo, Viola tricolor
# Procedure, shortened: as §2
# VERPE [15] = assay: Post-emergence herbicidal action against VERPE; assay type: in vivo, Veronica persica
# Procedure, shortened: as §1
# AVEFA = assay: Pre-emergence herbicidal action against AVEFA; assay type: in vivo, Avena fatua; settings: 80 g/ha, pre-emergence
# Procedure, shortened: as §2
# VIOTR [16] = assay: Post-emergence herbicidal action against VIOTR; assay type: in vivo, Viola tricolor
# Procedure, shortened: as §1
# ABUTH [17] = assay: Post-emergence herbicidal action against ABUTH; assay type: in vivo, Abutilon theophrasti; settings: visual assessment about 3 weeks after treatment vs untreated controls
# Procedure, shortened: as §1
# MATIN [18] = assay: Post-emergence herbicidal action against MATIN; assay type: in vivo, Matricaria inodora
# Procedure, shortened: as §1
# SETVI [19] = assay: Post-emergence herbicidal action against SETVI; assay type: in vivo, Setaria viridis; settings: dosage 20 g/ha
# Procedure, shortened: as §1
# PHBPU [20] = assay: Post-emergence herbicidal action against PHBPU; assay type: in vivo, Pharbitis purpurea
# Procedure, shortened: as §1
# [21] = 80 g/ha, scored visually after 3 weeks vs untreated controls (100% = plants have died, 0% = like control plants)
# [22] = dosage 20 g/ha, scored visually after 3 weeks vs untreated controls, 100% = plants have died, 0% = like control plants
# [23] = 20 g/ha, scored visually after 3 weeks vs untreated controls, 100% = plants have died, 0% = like control plants
smiles,measurement,setting,value
Cn1nnnc1NC(=O)c1ccc(C(F)F)c(C(=O)NCC(F)F)c1Br [Example 1-230],Post-emergence action against ALOMY in %,ALOMY [1],90%
same,Pre-emergence action against ABUTH (herbicidal activity),ABUTH [2]; [21],100%
same,Pre-emergence action against ABUTH (herbicidal activity in percent),ABUTH [2]; [22],90%
same,Pre-emergence action against ALOMY (herbicidal activity),ALOMY [3]; [21],90%
same,Post-emergence action at 20 g/ha against AMARE in %,AMARE [4],100%
same,Pre-emergence action against DIGSA in %,DIGSA [5]; dosage 20 g/ha,90%
same,Pre-emergence action against DIGSA in %,DIGSA [5]; dosage 80 g/ha,100%
same,Pre-emergence action against SETVI in %,SETVI [6]; dosage 20 g/ha,90%
same,Pre-emergence action against SETVI in %,SETVI [6]; dosage 80 g/ha,100%
same,Pre-emergence action against ECHCG in %,ECHCG [7],90%
same,Post-emergence action against ECHCG in %,ECHCG [8]; dosage 5 g/ha,80%
same,Post-emergence action against ECHCG in %,ECHCG [8]; dosage 20 g/ha,80%
same,Post-emergence action against DIGSA,DIGSA [9]; 20 g/ha,90%
same,Pre-emergence action against AMARE in %,AMARE [10]; [23],100%
same,Pre-emergence action against AMARE in %,AMARE [10]; [21],100%
same,Pre-emergence action against MATIN in %,MATIN [11]; dosage 20 g/ha,90%
same,Pre-emergence action against MATIN in %,MATIN [11]; dosage 80 g/ha,100%
same,Pre-emergence action against PHBPU in %,PHBPU [12],90%
same,Pre-emergence action against VERPE in %,VERPE [13]; dosage 80 g/ha,100%
same,Pre-emergence action against VIOTR in %,VIOTR [14]; dosage 20 g/ha,100%
same,Pre-emergence action against VIOTR in %,VIOTR [14]; dosage 80 g/ha,100%
same,Post-emergence action against VERPE in %,VERPE [15]; 20 g/ha,80%
same,Pre-emergence action against AVEFA in %,AVEFA,90%
CCn1nnnc1NC(=O)c1ccc(C(F)F)c(C(=O)NC2CC2)c1Br [Example 2-227],pest or weed control at 80 g/ha,"ABUTH [2]; Abutilon theophrasti, 504 h, 80 g/ha, scored visually after 3 weeks vs untreated controls (100% = plants have died, 0% = like control plants)",100%
same,pest or weed control at 20 g/ha,"ABUTH [2]; Abutilon theophrasti, 504 h, dosage 20 g/ha, scored visually after 3 weeks vs untreated controls, 100% = plants have died, 0% = like control plants, read-out: Pre-emergence action against ABUTH (herbicidal activity in percent)",100%
same,pest or weed control at 5 g/ha,"VIOTR [16]; Viola tricolor, 504 h, 5 g/ha",90%
same,pest or weed control at 20 g/ha,"VIOTR [16]; Viola tricolor, 504 h, 20 g/ha",100%
same,pest or weed control at 80 g/ha,"ALOMY [3]; Alopecurus myosuroides, 504 h, 80 g/ha, scored visually after 3 weeks vs untreated controls (100% = plants have died, 0% = like control plants)",100%
same,pest or weed control at 20 g/ha,"ALOMY [3]; Alopecurus myosuroides, 504 h, 20 g/ha, scored visually after 3 weeks, 100% = plants have died, 0% = like control plants",80%
same,pest or weed control at 20 g/ha,"AMARE [4]; Amaranthus retroflexus, 504 h",100%
same,pest or weed control at 20 g/ha,"DIGSA [5]; Digitaria sanguinalis, 504 h, dosage 20 g/ha",90%
same,pest or weed control at 80 g/ha,"DIGSA [5]; Digitaria sanguinalis, 504 h, dosage 80 g/ha",100%
same,pest or weed control at 20 g/ha,"SETVI [6]; Setaria viridis, 504 h, dosage 20 g/ha",100%
same,pest or weed control at 80 g/ha,"SETVI [6]; Setaria viridis, 504 h, dosage 80 g/ha",100%
same,pest or weed control at 80 g/ha,"ECHCG [7]; Echinochloa crus-galli, 504 h",100%
same,pest or weed control at 20 g/ha,"ECHCG [8]; Echinochloa crus-galli, 504 h, dosage 20 g/ha",80%
same,pest or weed control at 20 g/ha,"DIGSA [9]; Digitaria sanguinalis, 504 h, 20 g/ha",100%
same,pest or weed control at 20 g/ha,"AMARE [10]; Amaranthus retroflexus, 504 h, 20 g/ha, scored visually after 3 weeks vs untreated controls, 100% = plants have died, 0% = like control plants",100%
same,pest or weed control at 80 g/ha,"AMARE [10]; Amaranthus retroflexus, 504 h, 80 g/ha, scored visually after 3 weeks vs untreated controls, 100% = plants have died, 0% = like control plants",100%
same,pest or weed control at 20 g/ha,"MATIN [11]; Tripleurospermum inodorum, 504 h, dosage 20 g/ha",100%
same,pest or weed control at 80 g/ha,"MATIN [11]; Tripleurospermum inodorum, 504 h, dosage 80 g/ha",100%
same,pest or weed control at 80 g/ha,"PHBPU [12]; Ipomoea purpurea, 504 h",90%
same,pest or weed control at 80 g/ha,"VERPE [13]; Veronica persica, 504 h, dosage 80 g/ha",100%
same,pest or weed control at 20 g/ha,"VIOTR [14]; Viola tricolor, 504 h, dosage 20 g/ha",100%
same,pest or weed control at 80 g/ha,"VIOTR [14]; Viola tricolor, 504 h, dosage 80 g/ha",100%
same,pest or weed control at 5 g/ha,"ABUTH [17]; Abutilon theophrasti, 504 h, dosage 5 g/ha",100%
same,pest or weed control at 20 g/ha,"ABUTH [17]; Abutilon theophrasti, 504 h, dosage 20 g/ha",100%
same,pest or weed control at 20 g/ha,"VERPE [15]; Veronica persica, 504 h, 20 g/ha",80%
same,pest or weed control at 80 g/ha,"AVEFA; Avena fatua, 504 h",90%
CCn1nnnc1NC(=O)c1ccc(C(F)(F)F)c(C(=O)NC)c1C1CC1 [Example 2-286],Pre-emergence action against ABUTH (herbicidal activity),ABUTH [2]; [21],100%
same,Pre-emergence action against ABUTH (herbicidal activity in percent),ABUTH [2]; [22],100%
same,Post-emergence action against VIOTR in %,VIOTR [16]; 20 g/ha,80%
same,Pre-emergence action against ALOMY (herbicidal activity),ALOMY [3]; [21],80%
same,Post-emergence action at 20 g/ha against AMARE in %,AMARE [4],100%
same,Pre-emergence action against DIGSA in %,DIGSA [5]; dosage 20 g/ha,100%
same,Pre-emergence action against DIGSA in %,DIGSA [5]; dosage 80 g/ha,100%
same,Pre-emergence action against SETVI in %,SETVI [6]; dosage 20 g/ha,80%
same,Pre-emergence action against SETVI in %,SETVI [6]; dosage 80 g/ha,100%
same,Pre-emergence action against ECHCG in %,ECHCG [7],90%
same,Post-emergence action against MATIN in %,MATIN [18]; dosage 5 g/ha,90%
same,Post-emergence action against MATIN in %,MATIN [18]; dosage 20 g/ha,90%
same,Post-emergence action against ECHCG in %,ECHCG [8]; dosage 20 g/ha,100%
same,Post-emergence action against DIGSA in %,DIGSA [9]; 5 g/ha,90%
same,Post-emergence action against DIGSA,DIGSA [9]; 20 g/ha,90%
same,Pre-emergence action against AMARE in %,AMARE [10]; [23],100%
same,Pre-emergence action against AMARE in %,AMARE [10]; [21],100%
same,Pre-emergence action against MATIN in %,MATIN [11]; dosage 20 g/ha,100%
same,Pre-emergence action against MATIN in %,MATIN [11]; dosage 80 g/ha,100%
same,Pre-emergence action against PHBPU in %,PHBPU [12],90%
same,Pre-emergence action against VERPE in %,VERPE [13]; dosage 20 g/ha,80%
same,Pre-emergence action against VERPE in %,VERPE [13]; dosage 80 g/ha,100%
same,Pre-emergence action against VIOTR in %,VIOTR [14]; dosage 20 g/ha,90%
same,Pre-emergence action against VIOTR in %,VIOTR [14]; dosage 80 g/ha,100%
same,Post-emergence action against SETVI in %,SETVI [19],80%
same,Post-emergence action against PHBPU in %,PHBPU [20]; dosage 5 g/ha,90%
same,Post-emergence action against PHBPU in %,PHBPU [20]; dosage 20 g/ha,90%
same,Post-emergence action against ABUTH in %,ABUTH [17]; dosage 5 g/ha,90%
same,Post-emergence action against ABUTH in %,ABUTH [17]; dosage 20 g/ha,90%
same,Post-emergence action against VERPE in %,VERPE [15]; 5 g/ha,80%
same,Post-emergence action against VERPE in %,VERPE [15]; 20 g/ha,80%
